EC50, IC50 and CC50 data for twelve compounds are collected here from US20190030009A1, “COMPOUNDS AND COMPOSITIONS FOR THE TREATMENT OF CRYPTOSPORIDIOSIS” (Novartis AG, priority 2016, published 2019).

Data set [1] relates to Cryptosporidium parvum. The experiment in a line: Cytopathic effect (CPE) based assay, C. parvum infected HCT-8 cells. As to conditions: HCT-8 host cell viability (CellTiter-Glo), 48 hours treatment, read-out: Cp CPE EC50. In a few lines: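 HCT-8 cells were batch-infected with excysted C. parvum (Iowa isolate) oocysts at MOI 1:2 (host:parasite) for 3 h at 37 °C, then seeded and incubated 24 h before compound addition. Compounds were given as 3-fold dilution series (final DMSO <0.5%). Host-cell loss (cytopathic effect) was read as viability with CellTiter-Glo.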

The target of data set [2] is C. parvum PI(4)K (Cryptosporidium parvum, UniProt Q5CVD3). The experiment in a line: CpPI(4)K enzymatic assay (Transcreener ADP2 FP). The data set is classed as biochemical. The text has this: The full-length coding sequence of C. parvum PI(4)K (cgd8_4500, 1114 amino acids) was codon-optimized for baculovirus expression, synthesized and cloned into pFastBac-HTb (Invitrogen 10584-027) in frame with the amino-terminal polyhistidine tag using the BamHI and Hindlll restriction sites. Recombinant pFastBacHTb-CpPI(4)K bacmid clones were generated by site-specific transposition in E. coli DH10Bac (Invitrogen 10361-012). The bacmid sequence was confirmed by direct DNA sequencing to confirm a lack of mutations across the whole gene. The subsequent steps for bacmid isolation, transfection and selection of the recombinant viruses were performed according to the manufacturer's protocol (Bac-to-Bac system #10359, Invitrogen).
Chain of C. parvum PI(4)K (Q5CVD3 entry or part of it): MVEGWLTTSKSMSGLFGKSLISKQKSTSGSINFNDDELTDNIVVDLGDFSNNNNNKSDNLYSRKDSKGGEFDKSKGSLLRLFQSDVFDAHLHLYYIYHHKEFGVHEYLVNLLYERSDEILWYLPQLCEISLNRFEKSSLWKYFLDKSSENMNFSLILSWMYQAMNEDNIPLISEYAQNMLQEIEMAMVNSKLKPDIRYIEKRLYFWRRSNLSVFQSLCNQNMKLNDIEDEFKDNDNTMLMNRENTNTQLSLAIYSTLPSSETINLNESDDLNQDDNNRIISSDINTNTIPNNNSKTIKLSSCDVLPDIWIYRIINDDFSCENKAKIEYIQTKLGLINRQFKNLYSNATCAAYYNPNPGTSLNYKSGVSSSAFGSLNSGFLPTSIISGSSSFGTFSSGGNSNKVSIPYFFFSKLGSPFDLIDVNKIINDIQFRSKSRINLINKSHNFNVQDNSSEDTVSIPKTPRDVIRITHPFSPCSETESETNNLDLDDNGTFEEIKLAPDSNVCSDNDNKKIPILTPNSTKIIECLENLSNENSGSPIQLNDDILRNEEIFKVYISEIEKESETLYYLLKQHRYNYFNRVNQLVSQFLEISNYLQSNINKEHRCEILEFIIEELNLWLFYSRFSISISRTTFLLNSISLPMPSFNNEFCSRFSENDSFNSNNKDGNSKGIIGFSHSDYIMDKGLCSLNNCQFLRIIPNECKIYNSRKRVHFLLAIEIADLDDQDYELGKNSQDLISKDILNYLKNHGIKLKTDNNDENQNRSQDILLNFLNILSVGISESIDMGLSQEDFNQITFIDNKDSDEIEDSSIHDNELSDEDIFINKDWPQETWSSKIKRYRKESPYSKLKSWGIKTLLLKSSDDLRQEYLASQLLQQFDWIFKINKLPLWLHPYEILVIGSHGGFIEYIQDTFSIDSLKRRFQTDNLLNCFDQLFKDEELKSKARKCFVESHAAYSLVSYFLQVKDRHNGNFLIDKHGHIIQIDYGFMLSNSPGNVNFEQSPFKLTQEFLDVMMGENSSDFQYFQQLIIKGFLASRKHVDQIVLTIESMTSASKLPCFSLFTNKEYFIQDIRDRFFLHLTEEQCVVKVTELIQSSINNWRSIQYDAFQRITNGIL
SF9 cells, cultured in SF-900 III serum-free medium, were transfected with recombinant baculovirus at 1/200 (v/v) and incubated at 27° C. for 72 h. The pellets were collected after centrifugation and re-suspended in cell lysis buffer (20 mM Tris-HCl, pH 7.5, 300 mM NaCl, 1 mM DTT, 20 mM imidazole, 0.01% Triton X-100 and 1× complete protease inhibitor cocktail without EDTA (Roche Diagnostics 04693116001)). The cell suspension was lysed by sonication and the clarified supernatant was loaded onto a 1 ml HisTrap affinity column (GE Healthcare) pre-equilibrated with buffer A (20 mM Tris-HCl, pH 7.5, 300 mM NaCl, 1 mM DTT, 20 mM Imidazole, and 1× complete protease inhibitor cocktail without EDTA). The column was washed with buffer B (buffer A containing 45 mM imidazole) and the bound protein of interest was eluted with buffer C (buffer A with 90 mM imidazole). The fractions containing CpPI(4)K were pooled, concentrated using Amicon Ultra-15 and purified by a gel-filtration column (Hi-Load 26/60 Superdex 200, GE Healthcare) equilibrated with 20 mM Tris, pH 7.5, 300 mM NaCl, 1 mM DTT and 1× protease inhibitor cocktail without EDTA. The concentrations of the purified protein (Mw 132.39 kda) was determined by using the protein molar extinction coefficient (ε280 nm=133,810 M^−1 cm^−1). Aliquots were flash frozen in liquid nitrogen and immediately stored at −80° C.
The CpPI(4)K enzymatic assay was performed as described earlier with a some modifications (McNamara et al., 2013). Briefly, L-α-phosphatidylinositol (Avanti Polar Lipid 840046), dissolved in 3% n-octylglucoside (Roche Diagnostics 10634425001), was used as the lipid substrate for the PI(4)K activity assay. CpPI(4)K was assayed using Transcreener ADP2 FP detection kit (BellBrook 3010) in a black, solid 384-well plate (Corning 3575). The final assay volume was 10 μl and contained 3 nM of the respective CpPI(4)K construct in 10 mM Tris, pH 7.5, 1 mM DTT, 3 μM ATP, 5 mM Mn2+, 0.05% Triton X-100 and 10 μM phosphatidylinositol/octylglucoside. The enzyme reaction was performed for 50 minutes at room temperature and was stopped by adding 10 μl of detection mix containing 1× stop buffer (50 mM HEPES, pH7.5, 400 mM NaCl, 20 mM EDTA, and 0.02% Brij-35), 2 nM AMP Alexa Fluor 633 tracer, and 20 μg ml^−1 ADP antibody. Fluorescence polarization measurements were performed on the Infinite M1000 plate reader (Tecan) with λex=635 nm and λem=680 nm (20-nm bandwidth). IC50 values were calculated using Graphpad Prism software.
The inhibitory concentration (IC50) of selected compounds on the C. parvPI(4)K activity is provided in the third column [Cp_PI4K_enz IC50 (μM)] of Table II.

Data set [3] can be described thus: Cytotoxicity against HepG2. The data set is classed as cell-based. The following applies: human, HepG2 cells (ATCC HB-8065), 5 days exposure. Here is the method: Cytotoxicity against HepG2 (ATCC# HB-8065), a human liver cancer cell line, was determined as previously described earlier (Manjunatha et al., 2015). Briefly, cells were seeded at a density of 10^5 cells per well, incubated at 37° C. for 24 h and exposed to two-fold serially-diluted compounds for 5 days. Cell viability was monitored using the Cell Proliferation Kit II (Invitrogen). The cytotoxicity values of selected compounds are reported in the fifth column [HepG2 CC50 (μM)] of Table II.

The subject of data set [4] is Cryptosporidium hominis. In words: Cytopathic effect (CPE) based assay, C. hominis infected HCT-8 cells. As to conditions: HCT-8 host cell viability (CellTiter-Glo), 48 hours treatment, read-out: Ch CPE EC50. Here is the method:
(§1) Human ileocecal colorectal adenocarcinoma cells (HCT-8 [HRT-18] ATCC, CCL-34) were maintained in T-175 flasks (Corning, 431080) in complete growth medium (RPMI-1640 medium (Gibco, 11875) supplemented with 10% heat-inactivated horse serum (Gibco, 26050), 1×MEM non-essential amino acids (Gibco, 11140), 10 mM HEPES (Gibco, 15630), 100 units/mL penicillin, and 100 units/mL streptomycin) at 37° C. and 5% CO2 in a humidified incubator. Cultures were passaged twice weekly using 10 mL of 1×Phosphate-Buffered Saline (PBS) without Ca^2+ and Mg^2+ (Gibco, 20012) for washing and 3-5 mL per T-175 flask of TrypLE Express Enzyme (Gibco, 12604) for dissociation of adherent cells.
Cryptosporidium hominis oocysts were purchased from the Tufts University Cummings School of Veterinary Medicine (courtesy of Dr. Saul Tzipori). C. hominis oocysts were purified from infected gnotobiotic piglet feces and stored in PBS solution containing 0.01% Tween-20, 100 units/mL penicillin and 100 units/mL gentamicin. C. parvum and C. hominis oocysts less than three months old from the date of shedding were used in infection experiments.
(§2) Excystation and infection protocols were developed following established methods with some modifications (Gut & Nelson, 1999, Upton et aL, 1995, Bessoff et aL, 2013). Briefly, oocysts were primed in 1 mL of 10 mM hydrochloric acid in 1× Hank's Balanced Salt Solution (HBSS) (Gibco, 14025) for 10 minutes with agitation at 1000 rpm, 37° C. on an Eppendorf thermomixer, then washed twice with 1 mL of room temperature non-acidic 1× HBSS by centrifugation at 13,000 rpm for 3 minutes at 25° C. Primed oocysts were further excysted at a concentration of 1×10^6 oocysts/μL in parasite infection medium consisting of a pre-warmed and pre-gassed 1:1 formulation of Leibovitz's L-15 medium (Gibco, 11415) and UltraCULTURE medium (Lonza, 12-725F) supplemented with 2 mM sodium taurocholate (Sigma, 86339-1), 10% heat-inactivated horse serum, and 200 μM L-ascorbic acid (Sigma, 95210) at 25° C. for 10 minutes. HCT-8 monolayer cells were infected with excysted cryptosporidium at a specified multiplicity of infection (MOI). All dilutions for subsequent assays were performed in parasite infection medium without sodium taurocholate. Pre-excysted oocysts were enumerated microscopically using a C-Chip disposable hemocytometer (NanoEnTek, DHC-N01).
(§3) Compound powders were dissolved in neat DMSO (Fisher, D4121) to 10 mM and stored at 4° C. prior to dilution into source plates. Dilutions were carried out using a Microlab STAR liquid handler (Hamilton) to obtain compound source plates containing the ten-point or eight-point three fold dilutions starting from 10 mM in duplicates. Source plates were stored at 4° C. prior to spotting into assay plates. Before administration, all compound source plates were equilibrated to room temperature. A specified volume of compounds from source plate were spotted to assay plate using an Echo Acoustic liquid handler (LABCYTE, 550) so that the final DMSO concentration was less than 0.5%. Each assay plate a specified number of DMSO-treated negative control wells and a well-studied potent active compound at 100 nM as positive control. As a quality control, all positive and negative-control wells were used to calculate a Z′-value and signal to noise ratio (S:N) for each plate.
Cryptosporidium spp are obligate-intracellular parasites that infect intestinal epithelial cells and the host cell is killed upon parasite egress. […] The loss of epithelial cells is due to both rapid parasite invasion/multiplication/egress and also pro-inflammatory immune response (Adams et al., 1994, Griffiths et al., 1994). We have observed a consistent cytopathic effect (CPE) in HCT-8 cells with C. spp infection the loss of viability of the host cells using CellTiter-Glo reagent.
Confluent HCT-8 cells in T-175 flasks were directly infected with excysted oocysts at an MOI (host to parasite) of 1:2 for C. parvum and 1:4 for C. hominis. […]

Data set [5] deals with C. parvum. In words: High content imaging assay, C. parvum infected HCT-8 cells. As to conditions: Cryptosporidium parvum, percentage of infected HCT-8 cells, 48 hours treatment, read-out: Cp HCl IC50. It counts as cell-based. Here is the method: as §1
Cryptosporidium parvum oocysts purchased from the Sterling Laboratory, University of Arizona (Iowa isolate) were purified from infected calf feces using discontinuous sucrose and cesium chloride centrifugation gradients and stored in PBS solution containing 0.01% Tween 20, 100 units/mL penicillin and 100 units/mL gentamicin.
as §2, §3
Imaging assays were developed following established Cryptosporidium spp labeling and in vitro infection models with some modifications (Bessoff et aL, 2013, Gut & Nelson, 1999). Briefly, 2×10^4 HCT-8 cells per well were seeded into 384-well, flat black clear-bottom OPERA assay plates (Greiner, 789071-G) at 20 μL per well in complete growth medium using a Multidrop Combi liquid handler (ThermoScientific, 5840300) and standard tube dispensing cassette (ThermoScientific, 24072670) and incubated for 24 hours at 37° C. The HCT-8 cells were infected with 10 μL per well of 1×10^4 excysted C. parvum oocysts (host to parasite MOI of 1:0.5) or 10 μL per well of 4×10^4 excysted C. hominis oocysts (MOI 1:2) in parasite infection medium using the Multidrop and incubated at 37° C. […]

By EC50 is commonly meant the concentration at which the effect is half-maximal. One may read the IC50 as the concentration that inhibits the measured activity by half. The CC50 is the concentration giving 50% cytotoxicity. A high value points to lower toxicity to the cells. In the case of `CN(C(=O)c1ccn2ncc(-c3ccc(N)nc3)c2c1)c1ccc(C#N)cn1` [Example 54], the EC50 in data set [1] amounted to 324 nM. Besides, half-maximal inhibition in data set [2] (IC50) was put at 74 nM. This compound also came in with a CC50 at 5 days in data set [3] above 50000 nM.

In the case of `CNC(=O)c1ccc(-c2cnn3ccc(C(=O)N(C)c4ccc(C#N)cc4)cc23)cn1` [Example 97], the EC50 in data set [1] was found to be 241 nM. Further, the IC50 in data set [2] is 73 nM. Besides, in data set [3], the CC50 at 5 days stood at 31100 nM.

Turning to `CN(C(=O)c1ccn2ncc(-c3ccc(C(N)=O)cc3)c2c1)c1ccc(C#N)cc1` [Example 19], the EC50 in data set [1] was 37 nM. In data set [2], this compound returned an IC50 of 3 nM. This compound came in with a CC50 at 5 days in data set [3] of 5910 nM.

Take `CNC(=O)c1ccc(-c2cnn3ccc(C(=O)N(c4ccc(C#N)cn4)C4CCCC4)cc23)cc1` [Example 126]: in data set [1], the EC50 was found to be 410 nM. The compound further yielded an IC50 in data set [2] of 71 nM. In data set [3], this compound yielded a CC50 at 5 days of 22100 nM.

Regarding `CN(C(=O)c1ccn2ncc(-c3ccc(C(N)=O)cn3)c2c1)c1ccc(C#N)cc1` [Example 27], the EC50 in data set [1] was found to be 815 nM. This compound also returned an IC50 in data set [2] of 140 nM.

With `CC(Cn1cccn1)N(C(=O)c1ccn2ncc(-c3ccc(C(N)=O)cc3)c2c1)c1ccc(C#N)cn1` (stereo not shown) [Example 77], the EC50 in data set [1] was 582 nM. This compound also displayed an IC50 in data set [2] of 50 nM. In data set [3], the CC50 at 5 days was 29300 nM.

Turning to `CC(C)[C@H](N)C(=O)Nc1ccc(-c2cnn3ccc(C(=O)N(C)c4ccc(C#N)cc4)cc23)cc1` [Example 45], in data set [1], the EC50 was determined as 332 nM. The same compound came in with an IC50 in data set [2] of 239 nM.

In the case of `CN(C(=O)c1ccn2ncc(-c3cnc4[nH]ccc4c3)c2c1)c1ccc(C#N)cn1` [Example 53], the EC50 in data set [1] worked out at 550 nM. Besides, in data set [2], the 50% inhibitory concentration (IC50) was 47 nM.

In the case of `CNC(=O)c1ccc(-c2cnn3ccc(C(=O)N(CC4CC4)c4ccc(C#N)cn4)cc23)cc1` [Example 117], in data set [1], the EC50 came to 505 nM. Moreover, in data set [2], inhibition was half-maximal at 7 nM (IC50). In addition, in data set [3], the midpoint of cytotoxicity, the CC50 at 5 days, lay at 4330 nM.

For `CN(C(=O)c1ccn2ncc(-c3ccc(C(N)=O)cc3)c2c1)c1ccc(C#N)cn1` [Example 32], the EC50 in data set [1] was 93 nM; in data set [4], 119 nM. In data set [3], the CC50 at 5 days is 15800 nM. In addition, the IC50 in data set [5] came out at 58 nM.

For the compound `CNC(=O)c1ccc(-c2cnn3ccc(C(=O)N(c4ccc(C#N)cn4)C(C)(C)C)cc23)cc1` [Example 119], the EC50 stood at 1930 nM in data set [1] and 1940 nM in data set [4]. It took 20100 nM to reach half-maximal cytotoxicity in data set [3] (CC50 at 5 days).

Consider `CNC(=O)c1ccc(-c2cnn3ccc(C(=O)N(C)c4ccc(C(F)(F)F)cc4)cc23)cc1` [Example 103], for which, in data set [1], the EC50 was found to be 7 nM. Besides, the midpoint of cytotoxicity in data set [3], the CC50 at 5 days, lay at 8060 nM. Besides, the IC50 in data set [5] came to 8 nM.
